The source of these data is PubChem BioAssay AID720590 (Broad Institute, 2013).

Each structure is given as a SMILES string. Activity calls are given as the source filed them. No rule for the calls is given here. Bounds are passed on as bounds.

The first assay concerns the target Mycobacterium tuberculosis BioA (adenosylmethionine-8-amino-7-oxononanoate aminotransferase). Description: inhibition of M. tuberculosis BioA aminotransferase – biochemical, plate reader, dry powder samples, dose response (AID 720590). The note with it: M. tuberculosis BioA enzyme assay.
As for `O=C(O)CC/C(=C\c1ccc([N+](=O)[O-])cc1)c1nc2ccccc2s1`, the concentration at half-maximal activity (AC50) was 0.988 µM. As to `O=C(COc1ccc2ccc(=O)oc2c1)N1CCN(c2ccc(F)cc2)CC1`, the concentration at half-maximal activity (AC50) is 0.162 µM. With `COc1cccc(NC(=O)CCC2CCN(C(=O)c3ccc(C(C)=O)s3)CC2)c1`, the AC50 is 0.225 µM. As to `COc1ccc(-c2cc(C(F)(F)F)n3nc(C(=O)Nc4cccnc4)cc3n2)cc1`, the AC50 is less than 0.08 µM.

Consider `Cc1ccccc1/C=C(\CCC(=O)O)c1nc2ccccc2s1`, for which the AC50 is 7.62 µM. For the compound `CCN(CC)c1ccc2cc(C(=O)c3cccs3)c(=O)oc2c1`, the AC50 was less than 0.08 µM. As for `Cc1cc(C)n2nc(C(=O)Nc3cccnc3)nc2n1`, the concentration at half-maximal activity (AC50) is 0.673 µM.

Consider `COc1ccc(N2CCN(C(=O)c3ccc4c(c3)OCO4)CC2)cc1`, for which the half-maximal activity concentration (AC50) is 5.32 µM. For `Cc1cc(C)n2nc(C(=O)Nc3cccnc3)cc2n1`, the concentration at half-maximal activity (AC50) was 0.15 µM. With `O=C(Nc1cccc(F)c1)N1CCN(c2ccccc2)CC1`, the concentration at half-maximal activity (AC50) was 4.33 µM.

On to `O=C(Nc1ccc2snnc2c1)N1CCN(c2ccccc2)CC1`, for which the AC50 was less than 0.08 µM.

In the case of `CC(=O)c1ccc(N2CCN(C(=O)c3ccc(Br)cc3)CC2)c(F)c1`, the AC50 was less than 0.08 µM. On to `O=C(Nc1cccnc1)c1cnn2c(C(F)F)cc(C3CC3)nc12`, for which the AC50 is 0.252 µM. Take `O=C(Nc1ccc2snnc2c1)N1CCOCC1`: the AC50 was 0.896 µM. In the case of `CC(=O)c1ccc(N2CCN(C(=O)c3ccc(F)cc3)CC2)cc1`, the concentration at half-maximal activity (AC50) was 0.3 µM. On to `Cc1ccc(/C=C(\CCCC(=O)O)c2nc3ccccc3s2)cc1[N+](=O)[O-]`, for which the AC50 is 0.953 µM. For the compound `COc1cccc(C(=O)N2CCN(c3ccc(C(C)=O)cc3)CC2)c1`, the AC50 was 0.602 µM. On the same count and under the same terms, to `O=C(c1ccc2c(c1)OCO2)N1CCN(c2ccccc2)CC1` belongs > 20 µM (inactive); to `CCc1ccc(C(=O)N2CCN(Cc3ccc4c(c3)OCO4)CC2)cc1`, > 20 µM (inactive). Turning to `CC(=O)c1ccc(N2CCN(C(=O)c3ccc4ncsc4c3)CC2)cc1`, the AC50 is 0.246 µM. With `O=C(c1ccc2c(c1)OCO2)N1CCN(Cc2ccccc2)CC1`, the AC50 is > 20 µM (inactive). On to `O=C(Nc1ccc(Cl)c(-c2nc3ccccc3[nH]2)c1)c1cccnc1`, for which the AC50 was 0.181 µM. With `CC(=O)c1ccc(N2CCN(C(=O)c3ccc4c(c3)OCCO4)CC2)cc1`, the AC50 was 2.83 µM. For the compound `COC(=O)c1c(C(=O)OC)c(-c2cccc(F)c2)n2c1CS(=O)C2` (stereo unspecified), the AC50 is 0.115 µM. Still for that read-out and setting: to `CC(=O)c1ccc(N2CCN(C(=O)c3cccc(Cl)c3)CC2)cc1` belongs 0.0955 µM; to `Cc1ccc(-c2cc(C(F)(F)F)n3nc(C(=O)Nc4cccnc4)cc3n2)cc1`, less than 0.08 µM.

In the case of `O=C(O)CC/C(=C\c1ccccc1[N+](=O)[O-])c1nc2ccccc2s1`, the AC50 is > 20 µM (inactive). On to `CC(C)(C)c1ccc(C(=O)N2CCN(c3ccc4c(c3)OCO4)CC2)cc1`, for which the AC50 is > 20 µM (inactive).

For the compound `CC(=O)c1ccc(N2CCN(C(=O)c3ccc4c(c3)OCO4)CC2)cc1`, the AC50 was less than 0.08 µM.

Regarding `O=C(Nc1ccc(F)cc1)N1CCN(c2ccccc2)CC1`, the AC50 was 6.63 µM. Take `Cc1ccc(/C=C(\CCC(=O)O)c2nc3ccccc3s2)cc1`: the concentration at half-maximal activity (AC50) was 7.24 µM. Same read-out and setting: to `CCc1ccc(N2CCN(C(=O)c3ccc4c(c3)OCO4)CC2)cc1` belongs > 20 µM (inactive); to `CC(=O)c1ccc(N2CCN(Cc3ccc4c(c3)OCO4)CC2)cc1`, 0.133 µM. Turning to `CCOC(=O)N1CCN(C(=O)Nc2ccc3snnc3c2)CC1`, the concentration at half-maximal activity (AC50) was 0.424 µM. On to `CC(=O)c1ccc(N2CCN(C(=O)c3ccc(Cl)cc3)CC2)cc1`, for which the concentration at half-maximal activity (AC50) is 0.751 µM. As for `COc1cccc(NC(=O)N2CCN(c3ccccc3)CC2)c1`, the AC50 was > 20 µM (inactive). The same measure, in the same setting: the result for `CC(=O)c1ccc(N2CCN(C(=O)c3ccccc3)CC2)cc1` reads 0.161 µM; that for `Cc1ccc(/C=C(\CCC(=O)O)c2nc3ccccc3s2)cc1[N+](=O)[O-]`, less than 0.08 µM; that for `O=C(Nc1cccnc1)c1cc2nc(-c3cccs3)cc(C(F)(F)F)n2n1`, 0.0871 µM.

In the case of `COc1ccc(C(=O)N2CCN(c3ccc(C(C)=O)cc3)CC2)cc1`, the AC50 is 1.28 µM. As for `CC(=O)c1ccc(N2CCN(C(=O)c3cccc(F)c3)CC2)cc1`, the AC50 is 0.731 µM.

Consider `O=C(Nc1ccc2snnc2c1)N1CCCCC1`, for which the AC50 is 1.46 µM.

As for `COc1cc(/C=C/C(=O)Nc2cccnc2)cc(OC)c1OC`, the half-maximal activity concentration (AC50) is 0.107 µM.

For the compound `O=C(c1ccc2c(c1)OCO2)N1CCN(c2ccc(Cl)cc2)CC1`, the AC50 was 4.32 µM. As to `CC(=O)c1ccc(N2CCN(C(=O)c3cccnc3)CC2)cc1`, the AC50 is 2.04 µM. Still for that read-out and setting: to `CC(=O)c1ccc(N2CCN(C(=O)c3ccc(C)cc3)CC2)cc1` belongs 0.746 µM.

The same assay, now with this note: M. tuberculosis BioA enzyme assay, at 10 µM (top of the series).
`O=C(c1ccc2c(c1)OCO2)N1CCN(c2ccc(F)cc2)CC1`: the “activity change, negative = inhibition” value is “inactive”. Turning to `COc1ccc(NC(=O)N2CCN(c3ccccc3)CC2)cc1`, the “activity change, negative = inhibition” value is “inactive”. As for `Cc1ccc(NC(=O)N2CCN(c3ccccc3)CC2)cc1`, the “activity change, negative = inhibition” value was “inactive”. Turning to `Cc1nc2ccc(NC(=O)N3CCN(c4ccccc4)CC3)cc2s1`, the “activity change, negative = inhibition” value is “inactive”. Consider `O=C(Nc1ccc(Cl)cc1)c1cc2nc(C3CC3)cc(C(F)(F)F)n2n1`, for which the “activity change, negative = inhibition” value is “inactive”. On the same count and under the same terms, to `O=C(Nc1ccccc1)N1CCN(c2ccccc2)CC1` belongs “inactive”; to `O=C(Nc1ccncc1)c1cc2nc(C3CC3)cc(C(F)F)n2n1`, “inactive”; to `O=C(Nc1ccc2[nH]ccc2c1)N1CCN(c2ccccc2)CC1`, “inactive”. Turning to `Cc1nc2cc(NC(=O)N3CCN(c4ccccc4)CC3)ccc2o1`, the “activity change, negative = inhibition” value is “inactive”. For `O=C(Nc1cccnc1)c1cnn2c(C(F)(F)F)cc(-c3ccccc3)nc12`, the “activity change, negative = inhibition” value was “inactive”.
